Test results taken from the NIST ThermoML archive (doi:10.1016/j.tca.2012.02.002).
Values joined by “and” are separate entries in the source; they are usually repeats but may differ in a detail not shown here. Identical values can stand only once. Numbers after ± are expanded uncertainties.

Assay: molar heat capacity at constant pressure
Conditions: 101.33 kPa, Crystal

O=P([O-])([O-])[O-].[Er+3] [erbium phosphate]
Conditions | molar heat capacity at constant pressure
2 K, Drop calorimetry | 0.189 ± 0.006 J/K/mol
2.05 K, Relaxation Calorimetry | 0.1821 ± 0.0026 J/K/mol
2.06 K, Relaxation Calorimetry | 0.1815 ± 0.0028 J/K/mol
2.15 K, Relaxation Calorimetry | 0.169 ± 0.0025 J/K/mol and 0.1693 ± 0.0025 J/K/mol
2.23 K, Relaxation Calorimetry | 0.1585 ± 0.0023 J/K/mol
2.24 K, Relaxation Calorimetry | 0.1587 ± 0.0023 J/K/mol
2.33 K, Relaxation Calorimetry | 0.1486 ± 0.002 J/K/mol and 0.1492 ± 0.002 J/K/mol
2.42 K, Relaxation Calorimetry | 0.1398 ± 0.0019 J/K/mol
2.52 K, Relaxation Calorimetry | 0.1308 ± 0.0017 J/K/mol and 0.1303 ± 0.0017 J/K/mol
2.62 K, Relaxation Calorimetry | 0.1226 ± 0.0015 J/K/mol
2.63 K, Relaxation Calorimetry | 0.1216 ± 0.0015 J/K/mol
2.73 K, Relaxation Calorimetry | 0.1149 ± 0.0013 J/K/mol
2.74 K, Relaxation Calorimetry | 0.1147 ± 0.0013 J/K/mol
2.84 K, Relaxation Calorimetry | 0.1079 ± 0.0012 J/K/mol
2.85 K, Relaxation Calorimetry | 0.1075 ± 0.0012 J/K/mol
2.96 K, Relaxation Calorimetry | 0.1012 ± 0.0011 J/K/mol
2.97 K, Relaxation Calorimetry | 0.101 ± 0.0011 J/K/mol
3 K, Drop calorimetry | 0.0991 ± 0.0045 J/K/mol
3.08 K, Relaxation Calorimetry | 0.09512 ± 0.00093 J/K/mol
3.09 K, Relaxation Calorimetry | 0.095 ± 0.0009 J/K/mol
3.21 K, Relaxation Calorimetry | 0.08975 ± 0.00078 J/K/mol
3.22 K, Relaxation Calorimetry | 0.0889 ± 0.0008 J/K/mol
3.34 K, Relaxation Calorimetry | 0.08523 ± 0.00059 J/K/mol
3.35 K, Relaxation Calorimetry | 0.0846 ± 0.0006 J/K/mol
3.48 K, Relaxation Calorimetry | 0.08127 ± 0.00047 J/K/mol and 0.0813 ± 0.0005 J/K/mol
3.62 K, Relaxation Calorimetry | 0.07825 ± 0.00036 J/K/mol
3.64 K, Relaxation Calorimetry | 0.0777 ± 0.0004 J/K/mol
3.77 K, Relaxation Calorimetry | 0.07611 ± 0.00016 J/K/mol and 0.0763 ± 0.0002 J/K/mol
3.93 K, Relaxation Calorimetry | 0.0754 ± 0.0001 J/K/mol
4 K, Drop calorimetry | 0.0755 ± 0.006 J/K/mol
4.1 K, Relaxation Calorimetry | 0.07633 ± 0.00023 J/K/mol and 0.0764 ± 0.0002 J/K/mol
4.27 K, Relaxation Calorimetry | 0.07937 ± 0.0005 J/K/mol and 0.079 ± 0.0005 J/K/mol
4.44 K, Relaxation Calorimetry | 0.08477 ± 0.00078 J/K/mol
4.45 K, Relaxation Calorimetry | 0.0843 ± 0.0008 J/K/mol
4.62 K, Relaxation Calorimetry | 0.09293 ± 0.0011 J/K/mol
4.63 K, Relaxation Calorimetry | 0.0925 ± 0.0011 J/K/mol
4.82 K, Relaxation Calorimetry | 0.1048 ± 0.0015 J/K/mol and 0.1045 ± 0.0015 J/K/mol
5.02 K, Relaxation Calorimetry | 0.1211 ± 0.0019 J/K/mol and 0.1208 ± 0.0019 J/K/mol
5.22 K, Relaxation Calorimetry | 0.1421 ± 0.0023 J/K/mol and 0.142 ± 0.0023 J/K/mol
5.44 K, Relaxation Calorimetry | 0.1701 ± 0.0028 J/K/mol and 0.1698 ± 0.0028 J/K/mol
5.67 K, Relaxation Calorimetry | 0.2055 ± 0.0034 J/K/mol and 0.2049 ± 0.0034 J/K/mol
5.91 K, Relaxation Calorimetry | 0.2491 ± 0.0041 J/K/mol and 0.2489 ± 0.0041 J/K/mol
6 K, Drop calorimetry | 0.268 ± 0.01 J/K/mol
6.15 K, Relaxation Calorimetry | 0.3031 ± 0.0047 J/K/mol and 0.3029 ± 0.0047 J/K/mol
6.41 K, Relaxation Calorimetry | 0.3662 ± 0.0053 J/K/mol and 0.3497 ± 0.0053 J/K/mol
6.67 K, Relaxation Calorimetry | 0.4408 ± 0.0062 J/K/mol
6.68 K, Relaxation Calorimetry | 0.4451 ± 0.0062 J/K/mol
6.96 K, Relaxation Calorimetry | 0.5353 ± 0.0069 J/K/mol and 0.5363 ± 0.0069 J/K/mol
7.24 K, Relaxation Calorimetry | 0.6377 ± 0.0076 J/K/mol
7.25 K, Relaxation Calorimetry | 0.6369 ± 0.0076 J/K/mol
7.55 K, Relaxation Calorimetry | 0.7594 ± 0.0083 J/K/mol and 0.7584 ± 0.0083 J/K/mol
7.87 K, Relaxation Calorimetry | 0.893 ± 0.0089 J/K/mol and 0.8931 ± 0.0089 J/K/mol
8 K, Drop calorimetry | 0.956 ± 0.03 J/K/mol
8.2 K, Relaxation Calorimetry | 1.047 ± 0.01 J/K/mol and 1.049 ± 0.01 J/K/mol
8.54 K, Relaxation Calorimetry | 1.218 ± 0.01 J/K/mol
8.56 K, Vacuum adiabatic calorimetry | 1.262 ± 0.023 J/K/mol
8.9 K, Relaxation Calorimetry | 1.407 ± 0.011 J/K/mol and 1.404 ± 0.011 J/K/mol
9.19 K, Vacuum adiabatic calorimetry | 1.587 ± 0.025 J/K/mol
9.27 K, Relaxation Calorimetry | 1.607 ± 0.011 J/K/mol and 1.604 ± 0.011 J/K/mol
9.65 K, Relaxation Calorimetry | 1.831 ± 0.012 J/K/mol
9.84 K, Vacuum adiabatic calorimetry | 1.971 ± 0.028 J/K/mol
10 K, Drop calorimetry | 2.222 ± 0.067 J/K/mol
10.05 K, Relaxation Calorimetry | 2.057 ± 0.013 J/K/mol and 2.046 ± 0.012 J/K/mol
10.26 K, Relaxation Calorimetry | 2.218 ± 0.015 J/K/mol
10.52 K, Vacuum adiabatic calorimetry | 2.384 ± 0.031 J/K/mol
10.53 K, Relaxation Calorimetry | 2.408 ± 0.012 J/K/mol
10.66 K, Relaxation Calorimetry | 2.462 ± 0.012 J/K/mol
10.91 K, Relaxation Calorimetry | 2.636 ± 0.012 J/K/mol
11.1 K, Relaxation Calorimetry | 2.733 ± 0.012 J/K/mol
11.21 K, Vacuum adiabatic calorimetry | 2.814 ± 0.034 J/K/mol
11.35 K, Relaxation Calorimetry | 2.908 ± 0.012 J/K/mol
11.56 K, Relaxation Calorimetry | 3.016 ± 0.012 J/K/mol
11.81 K, Relaxation Calorimetry | 3.191 ± 0.012 J/K/mol
11.92 K, Vacuum adiabatic calorimetry | 3.253 ± 0.036 J/K/mol
12.04 K, Relaxation Calorimetry | 3.31 ± 0.012 J/K/mol
12.29 K, Relaxation Calorimetry | 3.486 ± 0.013 J/K/mol
12.53 K, Relaxation Calorimetry | 3.616 ± 0.012 J/K/mol
12.64 K, Vacuum adiabatic calorimetry | 3.701 ± 0.039 J/K/mol
12.78 K, Relaxation Calorimetry | 3.791 ± 0.012 J/K/mol
13.05 K, Relaxation Calorimetry | 3.929 ± 0.012 J/K/mol
13.3 K, Relaxation Calorimetry | 4.098 ± 0.012 J/K/mol
13.37 K, Vacuum adiabatic calorimetry | 4.111 ± 0.041 J/K/mol
13.59 K, Relaxation Calorimetry | 4.242 ± 0.011 J/K/mol
13.84 K, Relaxation Calorimetry | 4.403 ± 0.011 J/K/mol
14.12 K, Vacuum adiabatic calorimetry | 4.51 ± 0.042 J/K/mol
14.15 K, Relaxation Calorimetry | 4.549 ± 0.011 J/K/mol
14.41 K, Relaxation Calorimetry | 4.708 ± 0.011 J/K/mol
14.74 K, Relaxation Calorimetry | 4.863 ± 0.011 J/K/mol
14.88 K, Vacuum adiabatic calorimetry | 4.899 ± 0.044 J/K/mol
14.99 K, Relaxation Calorimetry | 5.019 ± 0.01 J/K/mol
15 K, Drop calorimetry | 4.903 ± 0.15 J/K/mol
15.35 K, Relaxation Calorimetry | 5.181 ± 0.01 J/K/mol
15.6 K, Relaxation Calorimetry | 5.328 ± 0.009 J/K/mol
15.65 K, Vacuum adiabatic calorimetry | 5.247 ± 0.045 J/K/mol
15.99 K, Relaxation Calorimetry | 5.488 ± 0.009 J/K/mol
16.24 K, Relaxation Calorimetry | 5.627 ± 0.009 J/K/mol
16.43 K, Vacuum adiabatic calorimetry | 5.599 ± 0.047 J/K/mol
16.65 K, Relaxation Calorimetry | 5.792 ± 0.009 J/K/mol
16.91 K, Relaxation Calorimetry | 5.923 ± 0.008 J/K/mol
17.21 K, Vacuum adiabatic calorimetry | 5.933 ± 0.048 J/K/mol
17.34 K, Relaxation Calorimetry | 6.085 ± 0.008 J/K/mol
17.6 K, Relaxation Calorimetry | 6.206 ± 0.008 J/K/mol
18 K, Vacuum adiabatic calorimetry | 6.247 ± 0.048 J/K/mol
18.06 K, Relaxation Calorimetry | 6.369 ± 0.008 J/K/mol
18.32 K, Relaxation Calorimetry | 6.493 ± 0.008 J/K/mol
18.8 K, Vacuum adiabatic calorimetry | 6.533 ± 0.049 J/K/mol
18.81 K, Relaxation Calorimetry | 6.67 ± 0.007 J/K/mol
19.07 K, Relaxation Calorimetry | 6.774 ± 0.007 J/K/mol
19.59 K, Vacuum adiabatic calorimetry | 6.837 ± 0.049 J/K/mol
19.6 K, Relaxation Calorimetry | 6.935 ± 0.007 J/K/mol
19.85 K, Relaxation Calorimetry | 7.052 ± 0.007 J/K/mol
20 K, Drop calorimetry | 6.881 ± 0.21 J/K/mol
20.41 K, Relaxation Calorimetry | 7.222 ± 0.007 J/K/mol
20.67 K, Relaxation Calorimetry | 7.329 ± 0.006 J/K/mol
20.84 K, Vacuum adiabatic calorimetry | 7.265 ± 0.05 J/K/mol
21.26 K, Relaxation Calorimetry | 7.493 ± 0.006 J/K/mol
21.52 K, Relaxation Calorimetry | 7.59 ± 0.006 J/K/mol
22.14 K, Relaxation Calorimetry | 7.771 ± 0.006 J/K/mol
22.39 K, Vacuum adiabatic calorimetry | 7.793 ± 0.05 J/K/mol
22.4 K, Relaxation Calorimetry | 7.869 ± 0.006 J/K/mol
23.06 K, Relaxation Calorimetry | 8.068 ± 0.006 J/K/mol
23.32 K, Relaxation Calorimetry | 8.163 ± 0.006 J/K/mol
23.97 K, Vacuum adiabatic calorimetry | 8.29 ± 0.05 J/K/mol
24.02 K, Relaxation Calorimetry | 8.364 ± 0.006 J/K/mol
24.29 K, Relaxation Calorimetry | 8.456 ± 0.006 J/K/mol
25 K, Drop calorimetry | 8.631 ± 0.26 J/K/mol
25.02 K, Relaxation Calorimetry | 8.665 ± 0.006 J/K/mol
25.28 K, Relaxation Calorimetry | 8.765 ± 0.006 J/K/mol
25.55 K, Vacuum adiabatic calorimetry | 8.799 ± 0.049 J/K/mol
26.06 K, Relaxation Calorimetry | 9.002 ± 0.006 J/K/mol
26.32 K, Relaxation Calorimetry | 9.091 ± 0.007 J/K/mol
27.13 K, Vacuum adiabatic calorimetry | 9.314 ± 0.048 J/K/mol
27.41 K, Relaxation Calorimetry | 9.432 ± 0.006 J/K/mol
28.27 K, Relaxation Calorimetry | 9.673 ± 0.006 J/K/mol
28.53 K, Relaxation Calorimetry | 9.786 ± 0.007 J/K/mol
28.72 K, Vacuum adiabatic calorimetry | 9.871 ± 0.047 J/K/mol
29.45 K, Relaxation Calorimetry | 10.07 ± 0.01 J/K/mol
29.72 K, Relaxation Calorimetry | 10.17 ± 0.01 J/K/mol
30 K, Drop calorimetry | 10.43 ± 0.31 J/K/mol
30.31 K, Vacuum adiabatic calorimetry | 10.46 ± 0.06 J/K/mol
30.68 K, Relaxation Calorimetry | 10.5 ± 0.01 J/K/mol
30.95 K, Relaxation Calorimetry | 10.6 ± 0.01 J/K/mol
31.9 K, Vacuum adiabatic calorimetry | 11.11 ± 0.06 J/K/mol
31.97 K, Relaxation Calorimetry | 10.96 ± 0.01 J/K/mol
32.22 K, Relaxation Calorimetry | 11.08 ± 0.01 J/K/mol
33.31 K, Relaxation Calorimetry | 11.44 ± 0.01 J/K/mol
33.49 K, Vacuum adiabatic calorimetry | 11.75 ± 0.06 J/K/mol
33.56 K, Relaxation Calorimetry | 11.58 ± 0.01 J/K/mol
34.69 K, Relaxation Calorimetry | 11.99 ± 0.01 J/K/mol
34.95 K, Relaxation Calorimetry | 12.12 ± 0.01 J/K/mol
35 K, Drop calorimetry | 12.41 ± 0.37 J/K/mol
35.09 K, Vacuum adiabatic calorimetry | 12.32 ± 0.07 J/K/mol
36.69 K, Vacuum adiabatic calorimetry | 13.09 ± 0.07 J/K/mol
38.29 K, Vacuum adiabatic calorimetry | 13.85 ± 0.07 J/K/mol
39.9 K, Vacuum adiabatic calorimetry | 14.59 ± 0.07 J/K/mol
40 K, Drop calorimetry | 14.63 ± 0.44 J/K/mol
41.51 K, Vacuum adiabatic calorimetry | 15.35 ± 0.07 J/K/mol
43.13 K, Vacuum adiabatic calorimetry | 16.12 ± 0.07 J/K/mol
44.75 K, Vacuum adiabatic calorimetry | 16.95 ± 0.07 J/K/mol
45 K, Drop calorimetry | 17.07 ± 0.51 J/K/mol
46.39 K, Vacuum adiabatic calorimetry | 17.8 ± 0.08 J/K/mol
